{"source": "patent US11787781B2", "about": "“Inhibiting ataxia telangiectasia and RAD3-related protein (ATR)” (Celator Pharmaceuticals, Inc., priority 2016, dated 2023)", "key": {"[1]": {"target": "CLK4 (Homo sapiens (Human), UniProt Q9HAZ1)", "sequence (Q9HAZ1 whole entry, species assumed)": "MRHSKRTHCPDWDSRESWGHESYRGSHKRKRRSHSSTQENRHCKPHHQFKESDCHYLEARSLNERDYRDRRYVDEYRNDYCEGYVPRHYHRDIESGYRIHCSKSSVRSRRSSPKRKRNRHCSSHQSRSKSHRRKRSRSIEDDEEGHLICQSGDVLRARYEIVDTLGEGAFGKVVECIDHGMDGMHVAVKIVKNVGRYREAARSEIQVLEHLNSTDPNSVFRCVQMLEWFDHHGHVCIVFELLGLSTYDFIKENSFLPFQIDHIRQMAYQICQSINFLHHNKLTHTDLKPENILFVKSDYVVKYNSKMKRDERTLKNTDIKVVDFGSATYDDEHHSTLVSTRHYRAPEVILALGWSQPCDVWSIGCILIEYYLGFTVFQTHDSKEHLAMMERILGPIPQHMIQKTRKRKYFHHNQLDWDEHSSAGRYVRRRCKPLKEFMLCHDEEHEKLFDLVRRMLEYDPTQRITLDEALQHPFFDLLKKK", "experiment": "Broad kinase panel screening", "format": "biochemical", "description": "(§1) Example 16: Broad Kinase Panel Screening (359)\n(§2) Major hits out of 359 were: ALK, ARK, c-MER, CLK1, DYRK, GSK3a, GSK3b, FLT2, FLT3, MLK1, SIK2, TNIK, and YSK4."}, "[2]": {"target": "PKD2/PRKD2 (Homo sapiens (Human), UniProt Q9BZL6)", "sequence (Q9BZL6 whole entry)": "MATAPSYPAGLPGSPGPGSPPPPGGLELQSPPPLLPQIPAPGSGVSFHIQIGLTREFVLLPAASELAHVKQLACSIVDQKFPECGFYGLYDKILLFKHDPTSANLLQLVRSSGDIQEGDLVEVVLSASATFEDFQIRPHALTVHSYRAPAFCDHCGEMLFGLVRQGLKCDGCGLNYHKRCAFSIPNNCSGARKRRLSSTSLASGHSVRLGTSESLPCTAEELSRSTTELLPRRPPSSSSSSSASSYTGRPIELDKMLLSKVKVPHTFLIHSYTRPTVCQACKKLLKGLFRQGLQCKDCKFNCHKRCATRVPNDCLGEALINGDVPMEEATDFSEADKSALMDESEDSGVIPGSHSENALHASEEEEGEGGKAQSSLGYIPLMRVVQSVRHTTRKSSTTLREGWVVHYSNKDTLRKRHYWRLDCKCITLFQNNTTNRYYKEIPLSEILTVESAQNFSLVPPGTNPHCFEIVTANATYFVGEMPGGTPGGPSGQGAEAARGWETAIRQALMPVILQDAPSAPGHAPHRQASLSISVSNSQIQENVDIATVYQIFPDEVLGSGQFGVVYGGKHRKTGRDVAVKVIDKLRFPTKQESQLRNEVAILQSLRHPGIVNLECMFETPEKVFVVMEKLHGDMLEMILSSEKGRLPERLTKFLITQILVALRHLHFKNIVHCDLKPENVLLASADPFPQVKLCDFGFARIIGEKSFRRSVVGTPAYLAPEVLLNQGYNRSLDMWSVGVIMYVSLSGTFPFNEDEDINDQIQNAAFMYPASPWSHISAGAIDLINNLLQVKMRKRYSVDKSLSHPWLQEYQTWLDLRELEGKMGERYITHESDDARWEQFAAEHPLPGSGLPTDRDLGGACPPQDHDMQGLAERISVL", "experiment": "Broad kinase panel screening", "format": "biochemical", "description": "as §1, §2"}, "[3]": {"target": "TNIK (Homo sapiens (Human), UniProt Q9UKE5)", "sequence (Q9UKE5 whole entry, species assumed)": "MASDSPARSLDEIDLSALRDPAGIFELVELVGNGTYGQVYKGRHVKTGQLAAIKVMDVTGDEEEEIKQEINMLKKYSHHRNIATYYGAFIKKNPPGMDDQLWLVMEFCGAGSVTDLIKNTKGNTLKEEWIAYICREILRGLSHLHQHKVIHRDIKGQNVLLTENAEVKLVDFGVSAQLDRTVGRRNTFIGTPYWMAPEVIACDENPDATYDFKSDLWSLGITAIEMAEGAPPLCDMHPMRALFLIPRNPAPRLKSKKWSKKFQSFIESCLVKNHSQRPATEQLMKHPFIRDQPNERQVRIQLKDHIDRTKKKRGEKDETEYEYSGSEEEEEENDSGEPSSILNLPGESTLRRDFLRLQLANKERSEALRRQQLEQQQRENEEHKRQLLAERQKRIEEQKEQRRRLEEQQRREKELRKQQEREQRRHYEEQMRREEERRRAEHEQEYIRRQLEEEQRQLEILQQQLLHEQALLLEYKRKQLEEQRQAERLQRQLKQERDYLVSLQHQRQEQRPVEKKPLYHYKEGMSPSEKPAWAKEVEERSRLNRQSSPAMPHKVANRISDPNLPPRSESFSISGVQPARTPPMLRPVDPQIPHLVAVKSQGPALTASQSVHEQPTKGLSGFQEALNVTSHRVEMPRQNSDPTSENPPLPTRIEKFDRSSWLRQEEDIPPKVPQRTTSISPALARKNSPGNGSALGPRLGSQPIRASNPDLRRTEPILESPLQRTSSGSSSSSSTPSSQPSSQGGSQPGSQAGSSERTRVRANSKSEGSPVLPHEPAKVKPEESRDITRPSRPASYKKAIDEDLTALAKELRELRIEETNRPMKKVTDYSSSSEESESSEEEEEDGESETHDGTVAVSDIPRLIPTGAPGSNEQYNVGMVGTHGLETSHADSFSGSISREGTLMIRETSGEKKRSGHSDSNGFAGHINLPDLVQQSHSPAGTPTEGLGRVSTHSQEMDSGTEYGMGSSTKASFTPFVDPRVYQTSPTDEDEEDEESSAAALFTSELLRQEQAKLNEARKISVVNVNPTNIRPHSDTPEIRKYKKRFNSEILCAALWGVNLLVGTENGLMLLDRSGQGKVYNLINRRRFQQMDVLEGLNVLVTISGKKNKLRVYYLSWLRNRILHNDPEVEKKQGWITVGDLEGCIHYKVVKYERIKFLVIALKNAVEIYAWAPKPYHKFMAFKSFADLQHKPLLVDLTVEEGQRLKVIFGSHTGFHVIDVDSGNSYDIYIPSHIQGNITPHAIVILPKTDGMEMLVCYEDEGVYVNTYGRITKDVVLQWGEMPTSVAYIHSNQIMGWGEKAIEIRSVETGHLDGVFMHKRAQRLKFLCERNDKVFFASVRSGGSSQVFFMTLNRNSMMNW", "experiment": "Broad kinase panel screening", "format": "biochemical", "description": "as §1, §2"}, "[4]": {"target": "MLK2/MAP3K10 (Homo sapiens (Human), UniProt Q02779)", "experiment": "Broad kinase panel screening", "format": "biochemical", "description": "as §1, §2"}, "[5]": {"target": "RET (Homo sapiens (Human), UniProt P07949)", "experiment": "Broad kinase panel screening", "format": "biochemical", "description": "as §1, §2"}, "[6]": {"target": "FLT4/VEGFR3 (Homo sapiens (Human), UniProt P35916)", "experiment": "Broad kinase panel screening", "format": "biochemical", "description": "as §1, §2"}, "[7]": {"target": "ARK5/NUAK1 (Homo sapiens (Human), UniProt O60285)", "sequence (O60285 whole entry)": "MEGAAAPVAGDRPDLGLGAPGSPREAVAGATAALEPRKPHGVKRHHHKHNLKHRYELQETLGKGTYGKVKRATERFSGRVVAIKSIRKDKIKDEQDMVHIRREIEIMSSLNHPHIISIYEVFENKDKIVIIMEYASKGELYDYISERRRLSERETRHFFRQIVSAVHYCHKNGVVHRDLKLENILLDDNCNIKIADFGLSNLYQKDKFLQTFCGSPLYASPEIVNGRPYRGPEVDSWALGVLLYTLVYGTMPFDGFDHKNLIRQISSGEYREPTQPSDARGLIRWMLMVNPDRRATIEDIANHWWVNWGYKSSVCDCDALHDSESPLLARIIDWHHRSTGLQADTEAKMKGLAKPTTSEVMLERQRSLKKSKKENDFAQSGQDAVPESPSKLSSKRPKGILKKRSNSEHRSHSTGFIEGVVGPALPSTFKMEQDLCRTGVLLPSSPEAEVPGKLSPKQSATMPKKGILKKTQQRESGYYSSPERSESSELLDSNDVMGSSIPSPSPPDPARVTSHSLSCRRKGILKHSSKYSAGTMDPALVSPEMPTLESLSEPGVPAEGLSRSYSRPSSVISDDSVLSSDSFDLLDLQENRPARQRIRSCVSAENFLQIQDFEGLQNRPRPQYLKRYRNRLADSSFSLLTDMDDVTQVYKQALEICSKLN", "experiment": "Broad kinase panel screening", "format": "biochemical", "description": "as §1, §2"}, "[8]": {"target": "YSK4/MAP3K19 (Homo sapiens (Human), UniProt Q56UN5)", "sequence (Q56UN5 whole entry)": "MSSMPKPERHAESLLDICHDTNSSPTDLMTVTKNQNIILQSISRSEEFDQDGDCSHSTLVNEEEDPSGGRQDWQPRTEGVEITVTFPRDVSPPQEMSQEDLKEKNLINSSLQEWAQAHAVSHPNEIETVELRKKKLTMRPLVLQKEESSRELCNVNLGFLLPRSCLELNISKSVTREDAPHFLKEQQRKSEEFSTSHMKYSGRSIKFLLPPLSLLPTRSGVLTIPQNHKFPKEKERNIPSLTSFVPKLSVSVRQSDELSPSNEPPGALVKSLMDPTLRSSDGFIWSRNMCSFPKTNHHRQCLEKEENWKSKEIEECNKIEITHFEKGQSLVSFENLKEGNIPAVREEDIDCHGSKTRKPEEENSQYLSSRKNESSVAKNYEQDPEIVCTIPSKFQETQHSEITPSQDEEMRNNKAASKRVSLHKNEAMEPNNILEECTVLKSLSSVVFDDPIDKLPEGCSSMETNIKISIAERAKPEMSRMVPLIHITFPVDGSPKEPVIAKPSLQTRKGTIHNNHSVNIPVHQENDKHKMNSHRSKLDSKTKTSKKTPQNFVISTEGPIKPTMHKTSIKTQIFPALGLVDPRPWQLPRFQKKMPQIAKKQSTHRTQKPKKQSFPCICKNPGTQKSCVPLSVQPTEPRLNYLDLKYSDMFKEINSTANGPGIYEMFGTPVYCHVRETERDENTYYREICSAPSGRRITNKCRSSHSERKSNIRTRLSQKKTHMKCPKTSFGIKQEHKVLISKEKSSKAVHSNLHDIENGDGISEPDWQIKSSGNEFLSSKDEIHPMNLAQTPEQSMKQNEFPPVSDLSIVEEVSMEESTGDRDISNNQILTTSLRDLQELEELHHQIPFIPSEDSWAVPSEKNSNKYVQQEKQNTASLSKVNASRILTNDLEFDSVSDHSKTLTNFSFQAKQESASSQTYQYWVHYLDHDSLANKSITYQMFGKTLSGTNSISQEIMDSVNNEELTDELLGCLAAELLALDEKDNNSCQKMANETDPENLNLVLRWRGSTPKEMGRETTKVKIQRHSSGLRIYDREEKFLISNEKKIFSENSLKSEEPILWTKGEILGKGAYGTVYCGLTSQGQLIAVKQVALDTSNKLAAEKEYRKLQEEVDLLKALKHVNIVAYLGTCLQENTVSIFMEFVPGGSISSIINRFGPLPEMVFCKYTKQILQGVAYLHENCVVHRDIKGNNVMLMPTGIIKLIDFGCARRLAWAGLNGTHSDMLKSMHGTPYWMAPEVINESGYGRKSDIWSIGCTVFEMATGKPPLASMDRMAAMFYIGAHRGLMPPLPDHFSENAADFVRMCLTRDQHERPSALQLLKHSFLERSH", "experiment": "Broad kinase panel screening", "format": "biochemical", "description": "as §1, §2"}, "[9]": {"experiment": "Loading of ATR inhibitors into TEA-SOS liposomes and liposome characterization", "format": "physicochemical", "method": "Sodium sucrose octasulfate (equivalent weight 144.8) is a sodium salt of sucrose derivate in which all hydroxyl groups have formed sulfuric acid esters. Sixty gram of sucrose octasulfate (SOS) sodium salt were dissolved in 150 ml of di water, heated with shaking (swirling) of a 50° C. water bath. The solution was passed through a column packed with sulfonated polystyrene divinylbenzene copolymer cation exchange resin beads (Dowex 50Wx8-100-200 mesh, Dow Chemical Co.). […] The eluent was monitored using a conductivity detector. The SOS fraction was collected corresponding to conductivity peak and immediately titrated with neat triethylamine (TEA) solution to pH 6-6.5. The solution was analyzed for residual sodium by potentiometry using a sodium-sensitive electrode and for SOS concentration using a refractometer. The solution having residual sodium less than 0.25% was diluted with di water to final SOS concentration 1.1 M and then sterile-filtered using Millipore 0.22 μm Steri-Top filter.\nCholesterol (Chol) was purchased from Avanti Polar Lipids, Alabaster, Ala., USA, hydrogenated soy phosphocholine (HSPC) and methoxy-poly(ethylene glycol)-1,2-distearoyl-sn-glyceryl (PEG2000-DSG) were obtained from Lipoid GmbH, Ludwigshafen, Germany.\nChol, HSPC and PEG2000-DSG were co-dissolved in 100% ethanol (200-proof, Sigma cat #: 459828) at a molar ratio of 3:2:0.15 at 65° C. The solution of TEA-SOS (10 times the volume of added ethanol) was mixed with the lipid solution at 60-65° C. and stirred at this temperature until a homogeneous milky suspension of multilamellar vesicles was formed. This suspension was extruded 3 times through 5 stacked polycarbonate track-etched filters (Corning Nuclepore) with the pore size of 100 nm using argon pressure extruder (Lipex Biomembranes) at 60-65° C., and resulting unilamellar liposomes were quickly chilled in ice and then stored at 4-6° C. before use. Concentration of phospholipids was measured by phosphate assay and particle diameter was recorded on a Malvern Nanosizer.\nPrior to drug loading, the TEA-SOS gradient was created by removing excess of un-trapped TEA-SOS using gel-chromatography (Sepharose CL-4B, Pharmacia). Osmolarity of liposomes was balanced using 50% dextrose solution. Final dextrose concentration was 15%.\nATR inhibitors were dissolved in 15% dextrose solutions in di water by titration with 1 M HCl and heating at 45° C. and then filtered with 0.2 micron NALGENE 13 mm Syringe Filters. Drug concentration in the solution was detected by HPLC. […]\nThe liposome-drug mixture was incubated with occasional agitation for 30 minutes at 65° C. The incubation mixture was quickly cooled down and incubated for 10 minutes at 0° C., then allowed to attain ambient temperature. Un-encapsulated drug was removed by gel chromatography on Sephadex G-25 (Amersham Pharmacia) eluted with HBS-6.5 buffer (5 mM 2-(4-(2-hydroxyethyl)-piperazino)-ethylsulfonic acid (HEPES), 144 mM NaCl, pH 6.5). Liposome fractions eluted in the void volume were combined, sterilized by 0.2 micron filtration, and stored at 4-6° C. before use. The liposomes were characterized by lipid concentration, drug concentration, and particle size (Table 2)."}, "[10]": {"tested_on": "SUM149 cells", "experiment": "Cell cycle stage profile, SUM149 cells", "format": "cell-based", "settings": "24 hours after addition of SN38 and ATR inhibitor"}, "[11]": {"tested_on": "panel of lung cancer cell lines", "experiment": "[…]-GLO cell viability, free drug monotherapy and combination screening", "format": "cell-based", "method": "In vitro efficacy study was done using […]-GLO Luminescent Cell Viability Assay (Promega) with Corning Cat #3707 384 well White Clear bottom plates. Cells were plated (1000 cells/well) in 384 well format and allowed to incubate at 37° C. for 24 hours. Monotherapy drugs were added at the 24 hr time point and then allowed to incubate at 37° C. for 24 hours. At the 48 hr time point the drugs in media were removed, washed with PBS, and fresh media was added. Cells were then allowed to incubate at 37° C. for 72 hours. […]\nAt the 120 hr time point media was removed and […]-GLO (CTG) reagent was added (1:1 ratio with PBS). Plates were read using a luminometer (Envision Multilabel reader). […]\nData was analyzed using an in-house algorithm developed using Matlab (Mathworks, Natick Mass.). […]\nData quality control was performed to ensure that the concentration range is optimal according to these rules: (1) if the lowest concentration kills more than 70% of the cells the concentration range is deemed too potent (2) if the highest concentration kills less than 30% of the cells, the concentration range is deemed low or the cell line is too resistant. Additionally, goodness of the fit was evaluated using R^2 and R^2<0.9 is flagged as a bad fit."}}}
{"smiles": "CN(C)CCC1CCN(CCS(=O)(=O)c2ccc(-c3cnc(N)c(C(=O)Nc4ccccc4)n3)cc2)CC1", "note": "[Compound 5, 3-amino-6-(4-((2-(4-(2-(dimethylamino)ethyl)piperidin-1-yl)ethyl)sulfonyl)phenyl)-N-phenylpyrazine-2-carboxamide]", "values": [{"measurement": "IC50", "setting": "[1]", "value": 0.0886, "unit": "µM"}, {"measurement": "IC50", "setting": "[2]", "value": 0.157, "unit": "µM"}, {"measurement": "IC50", "setting": "[3]", "value": 0.11, "unit": "µM"}, {"measurement": "IC50", "setting": "[4]", "value": 0.00958, "unit": "µM"}, {"measurement": "IC50", "setting": "[5]", "value": 0.0774, "unit": "µM"}, {"measurement": "IC50", "setting": "[6]", "value": 0.0634, "unit": "µM"}, {"measurement": "IC50", "setting": "[7]", "value": 0.0168, "unit": "µM"}, {"measurement": "IC50", "setting": "[8]", "value": 0.0292, "unit": "µM"}, {"measurement": "Loading efficiency (%)", "setting": "[9]; TEA-SOS liposomes, Compound 1 at ratio before loading 379", "value": "84 ± 8", "unit": "%"}, {"measurement": "Drug/lipid ratio after loading", "setting": "[9]; TEA-SOS liposomes, input ratio before loading (Compound 1: 379)", "value": "619 ± 110"}, {"measurement": "Liposome size, (mean ± SD) nm", "setting": "[9]; liposomes loaded with the ATR inhibitor", "value": "120 ± 29", "unit": "nm"}, {"measurement": "cell cycle stage profile vs controls", "setting": "[10]", "value": "larger percentage of cells are arrested in G2 phase"}, {"measurement": "potency (IC50) of chemotherapeutic agent combined with ATR inhibitor, vs Compound 6", "setting": "[11]; 1 μg/ml ATR inhibitor with Carboplatin, Gemcitabine or Compound B", "value": "more potent"}, {"measurement": "monotherapy cell kill IC50, folds lower than Compound 6", "setting": "[11]; monotherapy, 24 h exposure", "value": "~3", "unit": "folds"}]}
